Experimental data reported in a melting point compilation (Tetko et al.; mined from patent text by program, amines drawn as free bases though some values may be those of a salt).

SMILES	melting point [°C]
CC(C)(C)c1cc(-c2c(S)ssc2=S)cc(C(C)(C)C)c1O	182
OCCC(O)OCn1cc(I)c2c(Cl)ncnc21 (configuration not stated)	155 to 156
NC(=O)C1(c2ccc(C#Cc3ccccc3)cc2)CC1	174 to 176
C#Cc1cccc(Nc2ncnc3ccc(S(=O)(=O)n4ccc(C=CC(=O)OCC)c4)cc23)c1	154 to 156
O=C=Nc1ccc(OCC(=O)OCCOC(=O)COc2ccc(N=C=O)cc2)cc1	96 to 98
CNC(=S)N(C)Cc1ccc(Br)nc1	107 to 108
Cc1ccccc1N(CC(=O)N(C)c1ccccc1)C(=O)CN1C(=O)c2ccccc2C1=O	120
Nc1ccc(F)c(-n2cc(C(=O)O)c(=O)c3cc(F)c(F)c(Cl)c32)n1	228 to 230
OCc1ccc(-c2ccc3nc(-c4ccccc4)cn3c2)cc1	238 to 240
O=C(CS(=O)(=O)c1cccs1)C12CC3CC(CC(C3)C1)C2	118 to 119
CC1(c2ccccc2)OC(=O)Nc2ccc(-c3cccc(Cl)c3)cc21 (configuration not stated)	179 to 180
O=C1CCC(=O)N1CCCCSc1ccncc1	80 to 81
C1CCCCCC(=NOC(=NC2CCCCC2)NC2CCCCC2)CCCCC1	108 to 111
CCOC(=O)c1cn(-c2nc(OC)c(F)cc2F)c2c(Cl)c(F)c(F)cc2c1=O	140 to 143
O=c1c2c(Cl)cc(Cl)cc2n(Cc2ccccc2)c(=O)n1Cc1cccc(Br)c1	121 to 128
O=CNCS(=O)(=O)c1ccc2ccccc2c1	139 to 141
Nc1cc(=O)[nH]c(=O)n1-c1ccccc1	> 280
Nc1ncc2sc(=O)n(C3OC(CO)C(O)C3O)c2n1 (configuration not stated)	220
CCCCCOc1ccc(C#CC2(O)CN3CCC2CC3)cc1 (configuration not stated)	153 to 154
CC(c1ccc2c(c1)C(=O)c1ccccc1C2=O)N1CCNCC1 (configuration not stated)	97.7 to 98.1
OCC1OC(n2c(Cl)nc3ccc(Cl)cc32)C(O)C1O (configuration not stated)	162 to 163
CNC(=O)c1ccccc1C(=O)NCSc1ccncc1	118 to 121
CCOc1cccc(-c2nc3ccc(C(=O)O)cc3c(=O)[nH]2)c1OCC	> 320

SMILES	melting point [°C]
CSC1=CC2=CN(SC)NN2C(SC)=N1	165 to 167
CCC(Oc1cccc(C(F)(F)F)c1)C(=O)OC1CC(O)C=C2C=CC(C)C(CCC3CC(O)CC(=O)O3)C21 (mixture of isomers)	135 to 137
CC(C)(C)OC(=O)NCCN(CC(=O)O)C(=O)OCc1ccccc1	64.5 to 85
Cc1ccc(S(=O)(=O)Oc2ccc3c4c(nn3CCCN)-c3cnccc3C(=O)c24)cc1	211 to 213
N#Cc1c2cccccc-2nc1NCCC(c1ccccc1)c1ccccc1	178 to 180
COC(=O)C1=C(C)NC2=C(C(=O)OC2)C1c1cccc2nc(-c3ccccc3)sc12 (configuration not stated)	275
CCC[C@H]1CC[C@H](c2ncc(C(=O)O)cn2)CC1	184 to 186
CC(=O)Nc1nc(CCc2ccc(CC(=O)O)s2)cs1	172 to 174
O=C1c2ccc(Cl)cc2C(=O)N1c1ccc(Cl)cc1OC(F)(F)F	156 to 157
Cc1nc2c3c(ccc2n1C)C(O)C(OC(=O)C(C)(C)C)C(c1ccccc1)O3 (configuration not stated)	148
CCOC(=O)C(C)C(O)(c1ccc(OC)cc1)c1ccc(OC)cc1 (configuration not stated)	67 to 69
CCCc1nc(C)n2cnnc2c1Cc1ccc(-c2ccccc2-c2nnn[nH]2)cc1	182 to 184
CC(=O)c1ccc(NS(C)(=O)=O)c(Oc2ccccc2S(C)=O)c1 (configuration not stated)	113 to 116
COc1cc(C(=O)Nc2c(C)cc3cn[nH]c3c2C(=O)NC(C)C)n(-c2ncccc2Cl)n1	148 to 151
O=[N+]([O-])c1cccc(Br)c1CBr	61.5 to 63
O=c1c(-c2ccccc2)c(CSc2ncnc3[nH]cnc23)oc2ccc(Br)cc12	214 to 218
Cc1cc(OC(C)c2sc(-c3ccc(C(F)(F)F)cc3F)nc2C)ccc1OC(C)(C)C(=O)O (configuration not stated)	133
Cn1c(/C=C/C2CC(O)CC(=O)O2)c(-c2ccccc2)c2ccccc2c1=O (configuration not stated)	190 to 193
Cc1nc2cccc([N+](=O)[O-])c2s1	120 to 121
O=C1c2c(Cl)cccc2-n2cnc(I)c2[C@@H]2CCCN12	298 to 300
CCCCOCc1cnc2nc(N)[nH]c(=O)c2n1	> 300
Cc1oc(-c2ccco2)nc1CCOc1ccc([N+](=O)[O-])cn1	120 to 122
CCC(C)(CC)c1nnc(NC(=O)c2ccccc2)s1	98 to 100

Next, values leading:

melting point [°C]	SMILES
228 to 229	Cc1nn(-c2cc(Sc3ccc(O)cc3)c(Cl)cc2Cl)c(=O)n1C(F)F
88 to 89	COc1cc(OC)nc(C(C#N)c2ccccc2[N+](=O)[O-])n1 (configuration not stated)
265 to 273	CC1CNc2nc3c(N)nc4ccccc4c3n21 (configuration not stated)
128 to 131	CC1(C)CC(=O)C(C(=O)Nc2ccc(Cl)c(C(F)(F)F)c2)C(=O)C1
120	CC(=O)NC[C@@H]1C[C@H]1c1c(F)ccc2nn(C)cc12 (relative stereo)
140 to 141	COc1cc2c(cc1OCCN(C)C)N(C(=O)c1ccc(-c3ccc(-c4noc(C)n4)cc3C)cc1)CC2
118 to 120	Cn1nnnc1SCCCC(=O)c1ccc2ccccc2c1
150 to 151	CCCc1c(O)c(C(C)=O)cc2c(C)cc(C(=O)OCC)nc12
148	COc1cccc(N(CC(=O)OC(C)(C)C)C(=O)CN2C(=O)c3ccccc3C2=O)c1
217 to 218	ON=c1cc(-c2cc3cccn3cn2)oc2ccc(OCCc3cccc(C(F)(F)F)c3)cc12
109 to 110	C=C(C)Cc1c(C)c(OC(C)=O)c(C)c(C)c1O
159 to 160	CC(C)(C)c1ccc(CN(Cc2cccc(OCC(=O)O)c2)S(=O)(=O)c2cccnc2)cc1
175 to 177	Cc1ccc(NC(N)=S)c(-c2ccccc2)c1
33 to 34	CCCCCCCCCCCCCCOc1ccccc1CO
251 to 252	COC(=O)c1csc(NC(=O)c2cc(OC)c(OC)cc2OC)n1
148 to 150	CC(C)(C)OC(=O)NCCCCn1cnc2c(Cl)nc3ccccc3c21
104 to 107	C=C(C)CSc1ccccc1S(=O)(=O)NC(C)(C)C
218	C#CCOc1ccc(C2c3[nH]c4ccccc4c3CC(C(=O)OC)N2C(=O)CCl)cc1 (configuration not stated)
86.5 to 89.5	O=C(/C=C/c1cccnc1)N1CCN(C(=O)c2cc(C(F)(F)F)cc(C(F)(F)F)c2)[C@H](Cc2c[nH]c3ccccc23)C1

melting point [°C]	SMILES
234 to 238	CN(C(=O)CN1C(=O)C2(COc3cc4c(cc32)CCO4)c2ccccc21)c1ccccc1 (configuration not stated)
82 to 84	COc1ccc(C(=O)NCCn2c(C)ccc2C)cc1OC
215 to 216	CCc1cc2c(C(=O)O)ccc(OC)c2o1
97 to 105	O=C(O)c1ccc(OCCNC(=O)C2Cc3ccccc3N2S(=O)(=O)c2ccc(-c3cccc(C(F)(F)F)c3)cc2)cc1F (configuration not stated)
70 to 71	COP(=O)(Cc1ccc(-c2ccccc2)cc1)OC
170	COc1cc(CC(=O)N2CCN(c3nsc4ccccc34)CC2)c([N+](=O)[O-])cc1OC
242 to 244	Cc1nc2cc3c(cc2o1)C1(CO3)C(=O)Nc2ccccc21 (configuration not stated)
131	O=C(Nc1ccccc1)N(c1ccccc1)c1ccccc1
131 to 134	CCCCCC(O)CNCCCCCCNCC(O)CCCCC (configuration not stated)
86	[N-]=[N+]=NC[C@H]1O[C@H]([C@H](O)CO)[C@H](O)[C@@H]1O
155	OCC(CO)OCn1c(Cl)nc2c(Cl)c(Cl)c(Cl)c(Cl)c21
> 250	CCOC(=O)c1c(Cl)nc2cc(F)c(C)cc2c1CCl
172 to 174	Cc1ccc2c(-c3ccc(F)cc3)nc(=O)n(C(C)C)c2c1
113 to 117	COc1cccc(S(=O)(=O)c2cccc(F)c2C#N)c1
189 to 199	COc1cc(CC(=O)O)cc2c1C(=O)c1ccccc1CC2
230 to 232	O=C1C(=O)N2CCOc3cc([N+](=O)[O-])cc1c32
109	c1ccc([C@H]2CC[C@@H](Oc3ncnc4c3CCCC4)CC2)cc1
114 to 115	CC(C)(C)c1ccc([Si](C)(C)COc2cc(C(C)(C)C)c(O)c(C(C)(C)C)c2)cc1
214 to 215	CC(C)c1cccc(C(C)C)c1NC(=O)NC1CCc2ccccc2C1 (configuration not stated)

melting point [°C]	SMILES
62 to 64	O=Cc1c(Cl)cccc1OC[C@H]1CO1
154 to 155	CCO/C(=N/O)C1Cc2cc(C(C)=O)c(O)c(Cl)c2O1 (configuration not stated)
130 to 132	CCOC(=O)N1C=CC(c2c(-c3ccccc3)nn3ccccc23)C(Cl)=N1 (configuration not stated)
85	Cc1ccc(SCC2=NOCN2)cc1
248 to 250	Cc1cc(Oc2ccccc2)c(S(C)(=O)=O)cc1C(=O)N=C(N)N
300 to 301	CC(C)=CC(=O)Nc1ccc2ncnc(Nc3cccc(Br)c3)c2c1
197	NC(=O)c1[nH]cnc1OC(=O)C=Cc1cccc([N+](=O)[O-])c1
138 to 140	CN(Cc1ccccc1)c1cc(=S)ss1
116 to 118	Cc1ccc(S(=O)(=O)OCC2Cc3cccc(-c4ccc(C(F)(F)F)cc4)c3O2)cc1 (configuration not stated)
82 to 84	CCCCCCCCCCCCCc1cc(C(=O)O)c[nH]1
92 to 95	O=c1oc(-c2c(F)cccc2Cl)nn1-c1ccccc1Cl
117 to 120	NNC(=O)c1ccc(OC(F)(F)C(F)(F)F)cc1
288 to 290	O=C(O)c1cn(C2CC2)c2cc(F)c(F)cc2c1=O
78 to 80	CCCC(CC(CC)SC)CC1OC(n2cnc3c(N)ncnc32)C(O)C1O (configuration not stated)
188 to 190	CCN1c2ncccc2C(=O)Nc2c(C)cc(N3CCC(OC(C)=O)C3)nc21 (configuration not stated)
139 to 140	COc1cccc(Oc2ccc([C@@H]3CCCN4CCS(=O)(=O)N=C34)cc2)c1
168 to 170	CCOC(=O)c1cnc2nn(C)cc2c1NC(C)C
84.5 to 85	N#Cc1snc(Cl)c1Cl
